From patent US8747810B2, “Compositions and methods for imaging tissues, organs and tumors” (President and Fellows of Harvard College, priority 2009, dated 2014)

Tested on: B16F10 melanoma tumors
Test: In vivo biodistribution of 99mTc complexes in C57B16 mice bearing B16F10 melanoma tumors
Conditions: for mel/blood: melanoma/blood ratio; for mel/liver: melanoma/liver ratio; for mel/lung: melanoma/lung ratio; for mel/spleen: melanoma/spleen ratio
Description: To study the tumor uptake of ^99mTc complexes, ^99mTc-Z2-^99mTc-Z4, in vivo biodistribution experiment at 1, 3, 6 hours post intra-venous injection of the ^99mTc-complex were carried out in C57B16 mice bearing B16F10 melanoma tumors. The biodistribution data including melanoma/nontumor (M/NT) ratios for selected organs are summarized in Table 2 as percentage injected dose per gram (% ID/g) (Table 2). […] This is due to washout from no-tumor organs and increased retention in the tumor.

## O=C1C[S][99Tc-]23(=[O])[S]CC[N+]2(CCCN2CCCCC2)CC[N]13 (stereo not shown) [Tc-Z4]
1 h postinjection
  Eyes: 6.72 ± 0.77 % ID/g
  blood: 0.33 ± 0.03 % ID/g
  brain: 0.16 ± 0.01 % ID/g
  heart: 0.59 ± 0.07 % ID/g
  kidney: 2.50 ± 0.32 % ID/g
  liver: 20.32 ± 1.0 % ID/g
  lung: 2.37 ± 0.17 % ID/g
  melanoma (tumor uptake): 3.43 ± 0.70 % ID/g
  muscle: 0.63 ± 0.17 % ID/g
  spleen: 1.37 ± 0.19 % ID/g
  mel/blood: 10.50 ± 1.9
  mel/liver: 0.17 ± 0.03
  mel/lung: 1.45 ± 0.30
  mel/spleen: 2.49 ± 0.24
3 h postinjection
  Eyes: 7.19 ± 1.40 % ID/g
  blood: 0.34 ± 0.09 % ID/g
  brain: 0.18 ± 0.04 % ID/g
  heart: 0.63 ± 0.07 % ID/g
  kidney: 2.73 ± 0.76 % ID/g
  liver: 16.67 ± 3.8 % ID/g
  lung: 2.36 ± 0.54 % ID/g
  melanoma (tumor uptake): 3.59 ± 1.76 % ID/g
  muscle: 0.70 ± 0.52 % ID/g
  spleen: 1.22 ± 0.42 % ID/g
  mel/blood: 9.22 ± 4.93
  mel/liver: 0.15 ± 0.09
  mel/lung: 1.30 ± 0.67
  mel/spleen: 2.57 ± 1.21
6 h postinjection
  Eyes: 7.01 ± 0.41 % ID/g
  blood: 0.14 ± 0.03 % ID/g
  brain: 0.02 ± 0.01 % ID/g
  heart: 0.25 ± 0.06 % ID/g
  kidney: 1.07 ± 0.17 % ID/g
  liver: 12.9 ± 1.72 % ID/g
  lung: 0.91 ± 0.24 % ID/g
  melanoma (tumor uptake): 3.52 ± 0.88 % ID/g
  muscle: 0.09 ± 0.02 % ID/g
  spleen: 0.58 ± 0.20 % ID/g
  mel/blood: 24.95 ± 4.6
  mel/liver: 0.28 ± 0.08
  mel/lung: 3.99 ± 1.10
  mel/spleen: 6.44 ± 2.12

## O=C1C[S][99Tc-]23(=[O])[S]CC[N+]2(CCCN2CCOCC2)CC[N]13 (stereo not shown) [Tc-Z3]
1 h postinjection
  Eyes: 4.85 ± 0.63 % ID/g
  blood: 0.35 ± 0.11 % ID/g
  brain: 0.08 ± 0.02 % ID/g
  heart: 0.49 ± 0.11 % ID/g
  kidney: 2.62 ± 1.50 % ID/g
  liver: 17.75 ± 2.56 % ID/g
  lung: 2.08 ± 0.60 % ID/g
  melanoma (tumor uptake): 2.36 ± 0.25 % ID/g
  muscle: 0.38 ± 0.11 % ID/g
  spleen: 3.19 ± 1.05 % ID/g
  mel/blood: 7.49 ± 2.79
  mel/liver: 0.14 ± 0.03
  mel/lung: 1.26 ± 0.57
  mel/spleen: 0.85 ± 0.44
3 h postinjection
  Eyes: 4.72 ± 0.62 % ID/g
  blood: 0.10 ± 0.02 % ID/g
  brain: 0.01 ± 0.00 % ID/g
  heart: 0.14 ± 0.02 % ID/g
  kidney: 1.02 ± 0.13 % ID/g
  liver: 12.58 ± 1.4 % ID/g
  lung: 0.87 ± 0.35 % ID/g
  melanoma (tumor uptake): 2.74 ± 0.24 % ID/g
  muscle: 0.09 ± 0.02 % ID/g
  spleen: 3.16 ± 0.46 % ID/g
  mel/blood: 26.65 ± 4.9
  mel/liver: 0.22 ± 0.03
  mel/lung: 3.24 ± 1.79
  mel/spleen: 0.87 ± 0.17
